Literature values in patent publication US7996156B2, “Methods for predicting properties of molecules” (priority 2002, dated 2011).

Target: T1, aromatase enzyme (Homo sapiens, UniProt P11511)
T1 sequence (P11511 1-503): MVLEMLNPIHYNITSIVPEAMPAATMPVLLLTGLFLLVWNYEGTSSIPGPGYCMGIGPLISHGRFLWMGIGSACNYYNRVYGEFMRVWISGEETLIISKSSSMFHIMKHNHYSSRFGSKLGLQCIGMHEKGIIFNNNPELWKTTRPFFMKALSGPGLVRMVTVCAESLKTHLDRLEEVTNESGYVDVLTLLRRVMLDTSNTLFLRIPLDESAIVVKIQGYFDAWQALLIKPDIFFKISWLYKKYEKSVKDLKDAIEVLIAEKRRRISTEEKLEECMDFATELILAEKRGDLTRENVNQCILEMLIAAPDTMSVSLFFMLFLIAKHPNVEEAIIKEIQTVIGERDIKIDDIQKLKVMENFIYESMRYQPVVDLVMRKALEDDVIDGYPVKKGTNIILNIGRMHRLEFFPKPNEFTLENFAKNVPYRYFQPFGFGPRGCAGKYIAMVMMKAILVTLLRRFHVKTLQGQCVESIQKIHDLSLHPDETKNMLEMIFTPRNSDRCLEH
Details: 50 steroids of Table 8; cited from earlier work

C/C=C1\CC2C(CC[C@]3(C)C(=O)CCC23)[C@@]2(C)CCC(=O)C=C12 (stereo partly shown) [compound 50]
Binding (experimental binding data, aromatase enzyme): 0.96
